This is an account of results in patent US4401667A, “Cephalosporins” (Karl Thomae Gesellschaft mit beschrankter Haftung, priority 1980, dated 1983).

The subject of assay [1] is E. coli R+TEM (β-lactamase carrier). In words: serial dilution test in the microtiter system (MIC). In kind it is cell-based. To be noted: Escherichia coli. The procedure:
(§1) The tests were performed using the serial dilution test in the microtiter system. […] The nutrient medium consisted of 10 gm of peptone, 8 gm of meat extract oxoid, 3 gm of sodium chloride, and 2 gm of sec. sodium phosphate diluted with distilled water to 100 ml (pH 7.2-7.4). The age of the primary cultures was approximately 20 hours. The standardization of the bacteria suspension was effected using a photometer according to the method of Eppendorf (test tube .phi. 14 mm, filter 546 nm), using for comparison a barium sulfate suspension formed by the addition of 3.0 ml of 1% barium chloride solution to 97 ml of 1% sulfuric acid. After standardization, the test microorganisms were further diluted to a concentration of 1:1500, using a sodium chloride solution.
(§2) 16 mgm of the particular test compound were put into a 10 ml measuring flask, and the flask was subsequently filled to the mark with the solvent. The further dilution series was standardized with distilled water or the appropriate solvent.
(§3) The depressions of the microtiter plates were filled with 0.2 ml of nutrient medium. 0.01 ml of the appropriate test compound solution was then added, followed by inoculation with 0.01 ml (1 drop) of the standardized bacteria suspension. The bacteria were incubated at 37° C. for 18 to 20 hours. Control tests using only the solvent were carried out simultaneously.
(§4) The readings were made macroscopically to determine the minimum inhibitory concentration (the lowest still bacteriostatically effective concentration).
(§5) The following test organisms were used:
(§6) Staphylococcus aureus SG 511, Escherichia coli ATCC 11 775, Pseudomonas aeruginosa hamburgensis and Pseudomonas aeruginosa BC 19, Serratia marcescens ATCC 13 880, Klebsiella pneumoniae ATCC 10 031 and BC 6, Proteus mirabilis BC 17, Proteus rettgeri BC 7, Enterobacter Cloaceae ATCC 13047 and E. coli R+TEM (β-lactamase carrier).

Assay [2] relates to Enterobacter Cloaceae ATCC 13047. Described as above. The class given is cell-based. To be noted: Ent. cloacae ATCC 13047; 37° C., 18 to 20 hours. The procedure: as §1, §2, §3, §4, §5, §6
Assay [3] has as its system Escherichia coli ATCC 11 775. Described as above. In kind it is cell-based. To be noted: E. coli ATCC 11775, 37° C., 18 to 20 hours. The procedure:
as §1, §2, §3, §4, §5, §6

In assay [4] the test system is Klebsiella pneumoniae ATCC 10 031. The assay is described as above. Particulars: Kl. pneum. ATCC 10031, 37° C., 18 to 20 hours. The class given is cell-based. The protocol:
as §1, §2, §3, §4, §5, §6

Assay [5] has as its system Klebsiella pneumoniae BC 6. Described as above. In kind it is cell-based. The protocol:
as §1, §2, §3, §4, §5, §6

Assay [6] relates to Proteus mirabilis BC 17. Described as above. The class given is cell-based. Particulars: BC17, Prot. mirab. BC 17, 37° C., 18 to 20 hours. The protocol:
as §1, §2, §3, §4, §5, §6

The test system of assay [7] is Proteus rettgeri BC 7. The assay is described as above. In kind it is cell-based. To be noted: Providencia rettgeri, BC7; Prot. rettg.; 37° C., 18 to 20 hours. The procedure: as §1, §2, §3, §4, §5, §6
Assay [8] concerns Pseudomonas aeruginosa BC 19. Described as above. In kind it is cell-based. The procedure:
as §1, §2, §3, §4, §5, §6

Assay [9] concerns Pseudomonas aeruginosa hamburgensis. Described as above. The class given is cell-based. The procedure:
as §1, §2, §3, §4, §5, §6

Assay [10] relates to Serratia marcescens ATCC 13 880. Described as above. The class given is cell-based. To be noted: Serr. marcesc. ATCC 13880, 37° C., 18 to 20 hours. The protocol:
as §1, §2, §3, §4, §5, §6

Assay [11] deals with Staphylococcus aureus SG 511. Described as above. In kind it is cell-based. To be noted: SG511, Staph. aureus SG 511, 37° C., 18 to 20 hours. The procedure:
as §1, §2, §3, §4, §5, §6

The test system of assay [12] is E. coli ATCC 11 775. In words: experimental E. coli infection in mice. The class given is in vivo, mice (female, NMRI strain). To be noted: Escherichia coli, ATCC11, sc, 168 h, s.c. administration, once 1 hour after intraperitoneal infection, observation 7 days, read-out: ED50 (dose at which 50% of the animals survive). The protocol: Test compounds A-D of the invention and cefuroxim were tested in vivo against experimental infections in mice. E.coli ATCC 11 775 was used as the pathogenic bacteria. An intraperitoneal infection was induced with 0.2 ml of a 5% mucin suspension of the bacteria. This corresponds to approximately 1.4×10^6 E. coli bacteria per mouse. […] The treatment was applied once (1 hour after infection). The observation period was 7 days.

Where [13] appears, read: BC6, Kl. pneum. BC 6, 37° C., 18 to 20 hours, read-out: MIC.
Where [14] appears, read: BC19, Pseud. BC 19, 37° C., 18 to 20 hours, read-out: MIC.
Setting [15] is: Pseud. Hbg., 37° C., 18 to 20 hours, read-out: MIC.

In brackets after ≈: the same amount, converted by molar mass. Like-named read-outs stand apart in the source and are kept apart here.

Consider `NC(=O)CCn1nnnc1SCC1=C(C(=O)O)N2C(=O)[C@@H](NC(=O)[C@H](NC(=O)Nc3cnc(NCc4ccc(S(N)(=O)=O)s4)nc3O)c3ccc(O)cc3)[C@H]2SC1` [C, Sodium 7β-{D-α-[3-(2-(5'-aminosulfonyl-2'-thienylmethylamino)-4-hydroxy-5-pyrimidinyl)-ureido]-p-hydroxyphenylacetamido}-3-{[1-(2'-aminocarbonylethyl)-tetrazol-5-yl]-thiomethyl}ceph-3-em-4-carboxylate], for which the minimal inhibitory concentration (MIC) in assay [1] was 4 µg/mL; in [2] it was 0.25 µg/mL; in assay [3], 0.12 µg/mL; in assay [4], 0.25 µg/mL; in [5] (setting [13]), 0.25 µg/mL; in assay [6], 0.25 µg/mL. In addition, the MIC in assay [7] turned out to be 0.5 µg/mL; in assay [8] (setting [14]), 4 µg/mL; in assay [9] (setting [15]) it was 4 µg/mL; in assay [10] it was 0.5 µg/mL; in [11], 1 µg/mL. In [12], the ED50 worked out at 0.7 mg/kg.

As to `CS(=O)(=O)CCn1nnnc1SCC1=C(C(=O)O)N2C(=O)[C@@H](NC(=O)[C@H](NC(=O)Nc3cnc(NCc4ccco4)nc3O)c3ccc(O)cc3)[C@H]2SC1` [D, Sodium 7β-{D-α-[3-(2-(2'-furylmethylamino)-4-hydroxy-5-pyrimidinyl)-ureido]-p-hydroxyphenylacetamido}-3-{[1-(2'-methylsulfonylethyl)tetrazol-5-yl]-thiomethyl}-ceph-3-em-4-carboxylate], the MIC in [1] was 8 µg/mL; in assay [2], 0.5 µg/mL; in [3], 0.25 µg/mL; in [4] it was 0.25 µg/mL; in assay [5] (setting [13]) it was 0.5 µg/mL; in [6], 0.25 µg/mL. For the same compound, the MIC in [7] was 1 µg/mL; in assay [8] (setting [14]), 8 µg/mL; in [9] (setting [15]) it was 8 µg/mL; in [10], 0.5 µg/mL; in [11], 0.5 µg/mL. Further, the ED50 in assay [12] lay within 1 to 2 mg/kg.

`NS(=O)(=O)c1ccc(CNc2ncc(NC(=O)N[C@@H](C(=O)N[C@@H]3C(=O)N4C(C(=O)O)=C(CSc5nnnn5CCO)CS[C@H]34)c3ccc(O)cc3)c(O)n2)s1` [B]: the MIC in [1] turned out to be 4 µg/mL (≈ 4.79 µM); in [2] it was 0.25 µg/mL (≈ 0.299 µM); in [3], 0.06 µg/mL (≈ 0.0719 µM); in assay [4] it was 0.12 µg/mL (≈ 0.144 µM); in assay [5] (setting [13]) it was 0.25 µg/mL (≈ 0.299 µM); in [6], 0.12 µg/mL (≈ 0.144 µM). The MIC was 0.25 µg/mL (≈ 0.299 µM) in [7]; 2 µg/mL (≈ 2.4 µM) in assay [8] (BC19); 4 µg/mL (≈ 4.79 µM) in assay [9] (setting [15]); 0.25 µg/mL (≈ 0.299 µM) in [10]; 1 µg/mL (≈ 1.2 µM) in [11]. Also, the ED50 in assay [12] amounted to 0.4 mg/kg.

As for `CO/N=C(\C(=O)N[C@@H]1C(=O)N2C(C(=O)O)=C(COC(N)=O)CS[C@H]12)c1ccco1` [Cefuroxim, cefuroxim, reference compound], the MIC in [1] came to 4 µg/mL (≈ 9.43 µM); in assay [2] it was 32 µg/mL (≈ 75.4 µM); in assay [3], 8 µg/mL (≈ 18.9 µM); in assay [4] it was 2 µg/mL (≈ 4.71 µM); in [5] (BC6) it was 4 µg/mL (≈ 9.43 µM); in [6] it was 0.5 µg/mL (≈ 1.18 µM). Moreover, the MIC was 2 µg/mL (≈ 4.71 µM) in [7], 8 µg/mL (≈ 18.9 µM) in assay [10] and 1 µg/mL (≈ 2.36 µM) in assay [11]. In addition, the ED50 in assay [12] is over 100 mg/kg.

Take `O=C(Nc1cnc(NCc2cccnc2)nc1O)N[C@@H](C(=O)N[C@@H]1C(=O)N2C(C(=O)O)=C(CSc3nnnn3CCO)CS[C@H]12)c1ccc(O)cc1` [A, Sodium 7β-{D-α-[3-(4-hydroxy-2-(3'-pyridylmethylamino)-5-pyrimidinyl)-ureido]-p-hydroxyphenylacetamido}-3-{[1-(2'-hydroxyethyl)-tetrazol-5-yl]-thiomethyl}-ceph-3-em-4-carboxylate]: the minimal inhibitory concentration (MIC) in [1] was found to be 8 µg/mL; in [2], 0.5 µg/mL; in assay [3], 0.12 µg/mL; in [4] it was 0.25 µg/mL; in assay [5] (setting [13]), 0.5 µg/mL; in assay [6], 0.12 µg/mL. Besides, the MIC in [7] was found to be 0.5 µg/mL; in [8] (BC19), 4 µg/mL; in assay [9], 8 µg/mL; in assay [10], 0.25 µg/mL; in assay [11], 1 µg/mL. Further, the ED50 in assay [12] amounted to 0.9 mg/kg.

What is called MIC is the smallest concentration in the dilution series that meets the test's criterion for growth inhibition. What is called ED50 is the midpoint of the dose-response relation.
